Data set [1] concerns NS5A chimeric genotype 1b Con1 replicon with genotype 4a ED43 strain NS5A gene. As to the kind of experiment: Replicon assay, genotype 4a NS5A chimera. It is filed as cell-based, HCV. The following applies: Hepatitis C virus. In general terms: Replicon systems follow genome replication, usually without infectious particles.
The test system of data set [2] is stable HCV 1b RLuc replicon cells (dicistronic genotype 1b Con1 replicon). As to the kind of experiment: Renilla luciferase HCV replicon reporter assay, genotype 1b. The format is cell-based. To be noted: Hepatitis C virus, 72 h. Put shortly: (§1)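 72 h compound exposure (3-fold dilutions from 10 mM DMSO stocks) of replicon cells: stable dicistronic RLuc 1a H77, 1b Con1, 2a JFH-1 (NS5A L31); J6-NS5A chimera in JFH-1 (M31), transient in Huh-Lunet or stable. Renilla luciferase read-out, non-linear regression → EC50. DMSO negative control.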

The test system of data set [3] is NS5A chimeric genotype 2a JFH-1 replicon with genotype 2a J6 strain NS5A gene (M31 present). As to the kind of experiment: Replicon assay, genotype 2a J6 NS5A chimera. It is filed as cell-based, HCV. Put shortly: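 First, 3-fold serial dilutions of compound went onto replicon cells, DMSO serving as no-inhibition control and ITMN-191 at >100×EC50 as positive control. Next came 72 h incubation, lysis and Renilla luciferase measurement. Finally, EC50 was calculated by non-linear regression; replicons covered genotypes 1a H77, 1b Con1, 2a JFH-1 (L31) and J6-NS5A chimera (M31).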

The test system of data set [4] is NS5A chimeric genotype 2a JFH-1 replicon with genotype 2b MD2b-1 strain NS5A gene (M31 present). As to the kind of experiment: Replicon assay, genotype 2b NS5A chimera. It is filed as cell-based, HCV. Put shortly:
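EC50 was fitted by non-linear regression to Renilla luciferase signal after 72 h of exposure to 3-fold serially diluted compound (10 mM DMSO stocks). Controls were DMSO (none) and ITMN-191 above 100×EC50 (full). Chimeric 2a replicons were used either stable or transiently transfected into Huh-Lunet cells.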

The test system of data set [5] is NS5A chimeric genotype 1b Con1 replicon with genotype 3a S52 strain NS5A gene. As to the kind of experiment: Replicon assay, genotype 3a NS5A chimera. It is filed as cell-based, HCV.
The test system of data set [6] is stable HCV 2a JFH-1 Rluc replicon cells (L31 present in NS5A). As to the kind of experiment: Renilla luciferase HCV replicon reporter assay, genotype 2a JFH-1. The format is cell-based. In a few lines:
as §1

For data set [7], the system named is stable HCV 1a RLuc replicon cells (dicistronic genotype 1a H77 replicon). In words: Renilla luciferase HCV replicon reporter assay, genotype 1a. It is filed as cell-based. To be noted: Hepatitis C virus, 72 h, stable 1a H77 RLuc replicon cells. In a few lines:
as §1

The test system of data set [8] is Q30R in genotype 1a NS5A (1a Pi-Rluc replicon, Huh-7-derived cured-51 cells). In words: Replicon assay against resistance mutant 1a Q30R. The format is cell-based, HCV. The following applies: Hepatitis C virus. Put shortly: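 Q30R introduced by site-directed mutagenesis into the 1a Pi-RLuc replicon; replicon RNA transiently transfected into cured-51 cells. Cells treated with 3-fold serially diluted compound for 72 h, then lysed and Renilla luciferase measured; EC50 by non-linear regression.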

The nature of data set [9]: IV and PO single dose pharmacokinetic studies in SD rats. The format is in vivo, male Sprague-Dawley (SD) rats. To be noted: male SD rats, PO 2 mg/kg vs IV infusion 1 mg/kg; for bioavailability: Sprague-Dawley, rat, plasma, read-out: Rat % F. Put shortly: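 Fasted male Sprague-Dawley rats (250-300g, n=3/group) were given 1 mg/kg IV as a 30-min jugular infusion (5% ethanol/35% PEG 400/water pH 2.0) or 2 mg/kg by oral gavage (5% ethanol/55% PEG 400/citrate pH 2.2). Plasma was sampled to 24 h and analysed by LC/MS/MS. Non-compartmental parameters were derived, and %F was calculated from the oral/IV AUC ratio.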

The mark [10] stands for this setting: read-out: 4a (s) (nM), genotype 4a NS5A chimeric replicon, stable replicon cells (s).
The mark [11] stands for this setting: read-out: 4a (s), (s), activity range.
[12] abbreviates: Hepatitis C virus, read-out: 2a J6 (t) (nM), genotype 2a J6 NS5A chimeric replicon (M31), transiently transfected (t) into Huh-Lunet cells.
Setting [13] is: Hepatitis C virus, read-out: 2a J6 (t), transiently transfected (t) into Huh-Lunet cells, activity range.
[14] abbreviates: Hepatitis C virus, 2BS, read-out: 2b (s), stably replicating replicon cells (s), activity range.
Setting [15] is: Hepatitis C virus, read-out: 2b (s) (nM), genotype 2b MD2b-1 NS5A chimeric replicon (M31), stably replicating replicon cells (s).
Setting [16] is: Hepatitis C virus, read-out: 2b (t) (nM), genotype 2b MD2b-1 NS5A chimeric replicon (M31), transiently transfected (t).
The mark [17] stands for this setting: Hepatitis C virus, read-out: 2b (t), transiently transfected (t) into Huh-Lunet cells, activity range.
The mark [18] stands for this setting: Hepatitis C virus, read-out: 3a (s) (nM), genotype 3a NS5A chimeric replicon, stable replicon cells (s).
Where [19] appears, read: Hepatitis C virus, read-out: 3a (s), (s), activity range.
[20] abbreviates: Hepatitis C virus, read-out: 2a JFH (nM), genotype 2a JFH-1 replicon (L31 in NS5A), stable cells.
[21] abbreviates: Hepatitis C virus, read-out: 2a JFH, stable 2a JFH-1 Rluc replicon cells, L31 in NS5A, activity range.
[22] abbreviates: stable 1b Con1 RLuc replicon cells, 72 hours, read-out: 1b.
[23] abbreviates: Hepatitis C virus, read-out: 3a (t) (nM), genotype 3a NS5A chimeric replicon, transiently transfected (t).
Setting [24] is: Hepatitis C virus, read-out: 3a (t), transiently transfected (t) into Huh-Lunet cells, activity range.

Like-named read-outs stand apart in the source and are kept apart here.

As for `COC(=O)N[C@H](C(=O)N1[C@@H](C)CC[C@H]1c1ncc(-c2ccc3c(c2)COc2cc4c(ccc5nc([C@@H]6CC[C@H](C)N6C(=O)[C@@H](NC(=O)OC)C6CCOCC6)[nH]c54)cc2-3)[nH]1)C(C)C` [FC, Methyl [(1 S)-2-[(2S,5S)-2-(9-{2-[(2S,5S)-1-{(2S)-2-[(methoxycarbonyl)amino]-3-methylbutanoyl}-5-methylpyrrolidin-2-yl]-1H-imidazol-5-yl}-1,11-dihydroisochromeno[4′,3′:6,7]naphtho[1,2-d]imidazol-2-yl)-5-methylpyrrolidin-1-yl]-2-oxo-1-(tetrahydro-2H-pyran-4-yl)ethyl]carbamate], the EC50 in data set [1] (setting [10]) is 0.011 nM; in data set [1] (setting [11]), below 0.1 nM; in [2] (read-out: 1b (nM), stable 1b Con1 RLuc replicon cells, 72 hours), 0.021 nM; in [3] (setting [12]) it was 0.015 nM; in [3] (setting [13]), below 0.1 nM; in data set [4] (setting [14]) it was below 0.1 nM. For the same compound, the EC50 in [4] (setting [15]) is 0.048 nM; in data set [4] (setting [16]) it was 0.024 nM; in data set [4] (setting [17]), below 0.1 nM; in data set [5] (setting [18]), 0.031 nM; in data set [5] (setting [19]), below 0.1 nM; in data set [6] (setting [20]), 0.011 nM. Besides, the EC50 is below 0.1 nM in data set [6] (setting [21]); 0.014 nM in data set [7]; below 0.1 nM in data set [7] (activity range); below 0.1 nM in data set [8] (read-out: 1a Q30R); 0.031 nM in data set [8] (read-out: 1a Q30R (nM)). The “Rat % F” value in [9] (oral bioavailability) turned out to be 0%.
As to `COC[C@H]1C[C@@H](c2nc(Cl)c(-c3ccc4c(c3)COc3cc5c(ccc6nc([C@@H]7CC[C@H](C)N7C(=O)[C@@H](NC(=O)OC)C(C)C)[nH]c65)cc3-4)[nH]2)N(C(=O)[C@H](NC(=O)OC)c2ccccc2)C1` [FY, Methyl {(1R)-2-[(2S,4S)-2-(4-chloro-5-{2-[(2S,5S)-1-{(2S)-2-[(methoxycarbonyl)amino]-3-methylbutanoyl}-5-methylpyrrolidin-2-yl]-1,11-dihydroisochromeno[4′,3′:6,7]naphtho[1,2-d]imidazol-9-yl}-1H-imidazol-2-yl)-4-(methoxymethyl)pyrrolidin-1-yl]-2-oxo-1-phenylethyl}carbamate], the EC50 in [1] (setting [10]) was 0.005 nM; in data set [1] (setting [11]), below 0.1 nM; in data set [2] (setting [22]) it was 0.017 nM; in [3] (setting [12]), 0.005 nM; in data set [3] (setting [13]) it was below 0.1 nM; in data set [4] (setting [14]) it was below 0.1 nM. For the same compound, the EC50 in [4] (setting [15]) is 0.034 nM; in [5] (setting [18]), 0.029 nM; in [5] (setting [19]) it was below 0.1 nM; in data set [6] (setting [20]), 0.007 nM; in data set [6] (setting [21]), below 0.1 nM; in [7], 0.01 nM. Further, the figures for the EC50 in [7] (activity range), in data set [8] (read-out: 1a Q30R) and in [8] (read-out: 1a Q30R (nM)) were below 0.1 nM, below 0.1 nM and 0.017 nM, respectively. The bioavailability in data set [9] was determined as 13.5%.
Consider `COC[C@H]1C[C@@H](c2nc(C3CC3)c(-c3ccc4c(c3)COc3cc5c(ccc6nc([C@@H]7CC[C@H](C)N7C(=O)[C@@H](NC(=O)OC)C(C)C)[nH]c65)cc3-4)[nH]2)N(C(=O)[C@H](NC(=O)OC)c2ccccc2)C1` [FZ, Methyl {(1R)-2-[(2S,4S)-2-(4-cyclopropyl-5-{2-[(2S,5S)-1-{(2S)-2-[(methoxycarbonyl)amino]-3-methylbutanoyl}-5-methylpyrrolidin-2-yl]-1,11-dihydroisochromeno[4′,3′:6,7]naphtho[1,2-d]imidazol-9-yl}-1H-imidazol-2-yl)-4-(methoxymethyl)pyrrolidin-1-yl]-2-oxo-1-phenylethyl}carbamate], for which the EC50 was 0.025 nM in [1] (setting [10]); below 0.1 nM in data set [1] (setting [11]); 0.031 nM in data set [2] (setting [22]); 0.041 nM in [3] (read-out: 2a J6 (t), genotype 2a J6 NS5A chimeric replicon (M31), transiently transfected (t) into Huh-Lunet cells); below 0.1 nM in [3] (read-out: 2a J6 (t), transiently transfected (t) into Huh-Lunet cells, activity range); 0.101 nM in data set [4] (read-out: 2b (s), genotype 2b MD2b-1 NS5A chimeric replicon (M31), stably replicating replicon cells (s)). Further, the EC50 is 0.1 to 0.999 nM in data set [4] (read-out: 2b (s), stably replicating replicon cells (s), activity range); below 0.1 nM in [5] (read-out: 3a (s), (s), activity range); 0.098 nM in data set [5] (read-out: 3a (s), genotype 3a NS5A chimeric replicon, stable replicon cells (s)); below 0.1 nM in [6] (setting [21]); 0.025 nM in [6] (read-out: 2a JFH, genotype 2a JFH-1 replicon (L31 in NS5A), stable cells); 0.019 nM in data set [7]. Also, the EC50 in [7] (activity range) was below 0.1 nM; in [8] (read-out: 1a Q30R) it was below 0.1 nM; in [8] (read-out: 1a Q30R (nM)), 0.048 nM. In data set [9], the bioavailability stood at 18.5%.
As for `CC[C@H]1CC[C@@H](c2ncc(-c3ccc4c(c3)COc3cc5c(ccc6nc([C@@H]7CC[C@H](C)N7C(=O)[C@@H](NC(=O)OC)C(C)C)[nH]c65)cc3-4)[nH]2)N1C(=O)[C@@H](NC(=O)OC)C1CCOCC1` [HQ], the EC50 in data set [1] (setting [10]) was 0.02 nM; in data set [1] (setting [11]), below 0.1 nM; in data set [2] (setting [22]), 0.027 nM; in data set [3] (setting [12]), 0.088 nM; in [3] (setting [13]) it was below 0.1 nM; in [4] (setting [14]), 0.1 to 0.999 nM. The EC50 in [4] (setting [15]) is 0.233 nM; in data set [4] (setting [16]) it was 0.079 nM; in [4] (setting [17]) it was below 0.1 nM; in data set [5] (setting [18]) it was 0.076 nM; in data set [5] (setting [19]), below 0.1 nM; in data set [5] (setting [23]) it was 0.049 nM. Also, the EC50 in data set [5] (setting [24]) is below 0.1 nM; in data set [6] (setting [20]), 0.024 nM; in data set [6] (setting [21]) it was below 0.1 nM; in [7], 0.022 nM; in data set [7] (activity range), below 0.1 nM; in data set [8] (read-out: 1a Q30R), below 0.1 nM. Further, the EC50 in [8] (read-out: 1a Q30R (nM)) stood at 0.031 nM. Besides, in [9], the bioavailability was 34.3%.
Turning to `COC(=O)N[C@H](C(=O)N1[C@@H](C)CC[C@H]1c1ncc(-c2ccc3c(c2)COc2cc4c(ccc5nc([C@@H]6C[C@@H]7CCC[C@@H]7N6C(=O)[C@@H](NC(=O)OC)C6CCOCC6)[nH]c54)cc2-3)[nH]1)C(C)C` [IA], the EC50 in [1] (setting [10]) is 0.019 nM; in data set [1] (setting [11]), below 0.1 nM; in data set [2] (setting [22]), 0.024 nM; in data set [3] (setting [12]) it was 0.024 nM; in data set [3] (setting [13]), below 0.1 nM; in data set [4] (setting [14]), below 0.1 nM. For the same compound, the EC50 in [4] (setting [15]) is 0.062 nM; in [4] (setting [16]), 0.033 nM; in data set [4] (setting [17]) it was below 0.1 nM; in data set [5] (setting [18]), 0.052 nM; in [5] (setting [19]), below 0.1 nM; in data set [5] (setting [23]), 0.055 nM. In addition, the EC50 was below 0.1 nM in data set [5] (setting [24]); 0.021 nM in [6] (setting [20]); below 0.1 nM in data set [6] (setting [21]); 0.015 nM in data set [7]; below 0.1 nM in data set [7] (activity range); below 0.1 nM in data set [8] (read-out: 1a Q30R). Further, the EC50 in [8] (read-out: 1a Q30R (nM)) stood at 0.024 nM. Moreover, the bioavailability in data set [9] amounted to 21.8%.

The values above are taken from patent US10800789B2, “Antiviral compounds” (Gilead Pharmasset LLC, priority 2012, dated 2020).
